{"source": "patent US11364311B2", "about": "“Method of identifying ASD phenotype 1 patients” (Stalicla S.A., priority 2017, dated 2022)", "key": {"[1]": {"test_system": "lymphoblastoid cell lines of ASD phenotype 1 patients", "test": "Energy production (NADH) in Biolog Phenotype Mammalian MicroArrays, phenotype 1 cells", "assay_type": "cell-based, human", "conditions": "cells exposed to the factor; Figure 1 (AUC) and Table 1", "description": "The phenotype 1 cohort (Phi) selected far in vitro experiments was composed by 14 males and 1 female (ratio 14:1), with an age range of 2-17 years (average 7.7).\nFrom all subjects, blood samples were collected and lymphoblastoid cell lines generated. Briefly, tubes containing anticoagulant citrate dextrose (ACD) were used to collect blood samples via venipuncture, in order to ensure that the blood cells remained metabolically active. The tubes were kept at room temperature and processed within 24 hours.\nCell lines were obtained by immortalization of lymphocytes from blood samples using Epstein-Barr virus.\nEnergy production of cells was measured using commercially available Phenotype Mammalian MicroArrays (PM-Ms, Biolog, Hayward, Calif., USA).\nThe compound in each well was designed to be used by the cells, either as the sole energy source or as the metabolic effector influencing the utilization of an energy source (α-D-glucose) added in the cell suspension. […] Before plating, cell viability and number were assessed utilizing a BioRad cell counter and a trypan blue dye. The concentration of live cells required for plating was 4×10^5 cells/mL, corresponding to 20,000 cells per well in a volume of 50 μL. […] Cells were incubated for 48 h at 37° C. in 5% CO2, using the modified Biolog IF-M1 medium.\nThe Biolog IF-M1 medium was modified for plates PM-M1 to M4 by adding the following to 100 mL of Biolog IF-M1: 1.1 mL of 100× penicillin/streptomycin solution, 0.18 mL of 200 mM glutamine (final concentration 0.3 mM), and 5.3 mL of Fetal Bovine Serum (FBS, final concentration 5%). For plates PM-M5 to M8, 5.5 mM α-D-glucose will be added in place of FBS.\nDuring the 48-hour incubation, the only energy source the cells had was the chemical in the well. After this first incubation, Biolog Redox Dye Mix MB was added (10 μL/well) and the plates were incubated under the same conditions for an additional 24 hours. As the cells metabolized the energy source, tetrazolium dye in the media was reduced, producing a purple color according to the amount of NADH generated.\nFor the last 24 hours of the experiment, the plates were incubated in the Omnilog system, which collects optical density readings every 15 minutes, generating 96 data-points for each well. The system also elaborated the kinetic curve for the metabolic reaction in each well and extrapolated parameters such as slope, highest point, endpoint, area under the curve (AUC), and lag.\nAt the end of the 24-hour incubation, the plates were analyzed utilizing a microplate reader with readings at 590 and 750 nm. The first value (A590) indicated the highest absorbance peak of the redox dye and the second value (A750) gave a measure of the background noise. The relative absorbance (A590-750) was calculated per well."}, "ASD phenotype 2 patients": {"test_system": "ASD phenotype 2 patients", "conditions": "for Clinical significance (CGI-I): after 3 days of sulforaphane administration; for ADI-R-RI S score / ADI-R-C S score / ADI-R-SI S score: day 3 of challenge test, given as broccoli sprout extract as in example 3; for ADI-R-SI S score: B score 16", "description": "The effects of sulforaphane containing Broccoli sprout extract was observed and quantified in 7 individuals suffering from ASD and previously classified as either phenotype 1 or phenotype 2 patients.\nWe describe a procedure consisting of an evaluation of patients with ASD prior and after administration of broccoli sprout extract. The extract was prepared from selected broccoli seeds known to have high yield of sulforaphane which were surface-disinfected and grown (sprouted) for 3 days in a commercial sprouting facility under controlled light and moisture conditions. A boiling water extract was prepared, filtered, cooled, and treated with the enzyme myrosinase (from daikon sprouts) to convert precursor glucosinolates to isothiocyanates. Behavioral evaluation of patients was performed prior, during and after administration of sulforaphane-containing broccoli sprout extract. Baseline evaluation of patients was performed using standard clinical endpoints (ADI-R subscales ADI-SI, ADI-C and ADI-RI).\nChallenge regimen consisted of the administration of a Broccoli Sprout Extract dose corresponding to a total daily dosage of 4 μmol/kg of sulforaphane, administered in 3 doses over the course of the day.\nThe assessment of baseline scores and post challenge test scores was conducted by two experienced clinicians with extensive experience in conducting ASD clinical assessments, both of which separately rated the patients. In case of diverging scores in test subscales at baseline or after administration of the challenge test, the lowest severity score was retained. Assessment of clinical endpoints was performed at day 3 of administration of challenge test. Behavioral Outcome Measures: (primary efficacy endpoints): ABC, SRS; CGI-S, CGI-I and ADI-R (ADI-SI, ADI-C, ADI-RI)."}, "humans": {"test_system": "humans", "conditions": "cited from earlier work"}, "[2]": {"conditions": "Example 4 Patient 1 (phenotype 2)"}, "[3]": {"conditions": "Example 4 Patient 2 (phenotype 2)"}}, "note": "Like-named read-outs stand apart in the source and are kept apart here."}
{"molecule": "FGF-1(aFGF): growth factor that selectively targets the PI3K-Akt-mTOR pathway", "values": [{"measurement": "production of NADH in ASD phenotype 1 cells compared to TDs and non-phenotype 1 cells", "setting": "[1]", "result": "significantly reduced production of NADH"}]}
{"molecule": "PDGF-AB: platelet-derived growth factor AB", "values": [{"measurement": "production of NADH in ASD phenotype 1 cells compared to TDs and non-phenotype 1 cells", "setting": "[1]", "result": "no significant differences"}]}
{"molecule": "IGF-I: insulin-like growth factor 1", "values": [{"measurement": "production of NADH in ASD phenotype 1 cells compared to TDs and non-phenotype 1 cells", "setting": "[1]", "result": "no significant differences"}]}
{"molecule": "IL-1beta: Th1 cytokine", "values": [{"measurement": "production of NADH in ASD phenotype 1 cells compared to TDs and non-phenotype 1 cells", "setting": "[1]", "result": "significantly lower levels of NADH"}]}
{"molecule": "hGH(Somatotropin): growth factor that selectively targets the PI3K-Akt-mTOR pathway", "values": [{"measurement": "production of NADH in ASD phenotype 1 cells compared to TDs and non-phenotype 1 cells", "setting": "[1]", "result": "significantly reduced production of NADH"}]}
{"molecule": "C[S@@+]([O-])CCCCN=C=S", "note": "[sulforaphane, 1-isothiocyanato-4R-(methylsulfinyl)butane]", "values": [{"measurement": "Clinical significance (CGI-I)", "setting": "ASD phenotype 2 patients; [2]", "result": "Very much improved"}, {"measurement": "ADI-R-RI S score", "setting": "ASD phenotype 2 patients; Example 4 Patient 1 (phenotype 2), B score 3", "result": 3}, {"measurement": "ADI-R-C S score", "setting": "ASD phenotype 2 patients; Example 4 Patient 1 (phenotype 2), B score 12", "result": 10}, {"measurement": "ADI-R-SI S score", "setting": "ASD phenotype 2 patients; [2]", "result": 12}, {"measurement": "Clinical significance (CGI-I)", "setting": "ASD phenotype 2 patients; [3]", "result": "Very much improved"}, {"measurement": "ADI-R-RI S score", "setting": "ASD phenotype 2 patients; Example 4 Patient 2 (phenotype 2), B score 5", "result": 4}, {"measurement": "ADI-R-C S score", "setting": "ASD phenotype 2 patients; Example 4 Patient 2 (phenotype 2), B score 11", "result": 9}, {"measurement": "ADI-R-SI S score", "setting": "ASD phenotype 2 patients; [3]", "result": 14}, {"measurement": "tolerability of administration to humans", "setting": "humans; humans", "result": "well tolerated"}, {"measurement": "toxicity", "setting": "humans; in vivo", "result": "low toxicity"}]}
{"molecule": "IL-6: Th1 cytokine", "values": [{"measurement": "production of NADH in ASD phenotype 1 cells compared to TDs and non-phenotype 1 cells", "setting": "[1]", "result": "significantly lower levels of NADH"}]}
